# Laboratory results from patent publication US20150183834A1 (priority 2005, published 2015).
# What was measured:
# [1] = tested on: human PBMC; type: cell-based
# [2] = tested on: human PBMC; type: cell-based; remark: listed apart in the source
# [3] = tested on: Rhesus macaque PBMC; type: cell-based, Rhesus (Macaca mulatta)
# [4] = tested on: human peripheral blood mononuclear cells (PBMCs); type: cell-based
# [5] = tested on: human PBMC; type: cell-based; remark: listed apart in the source
# [6] = tested on: human PBMC; type: cell-based; remark: listed apart in the source
# [7] = tested on: Rhesus macaque PBMC; type: cell-based, Rhesus (Macaca mulatta); remark: listed apart in the source
# [8] = tested on: human PBMC; type: cell-based; remark: listed apart in the source
# [9] = tested on: purified human CD4+ and CD8+ T cells; type: cell-based
# [10] = tested on: Rhesus macaque PBMC; type: cell-based, Rhesus (Macaca mulatta); remark: listed apart in the source
# [11] = tested on: protein kinase C; conditions: cited from earlier work
sequence,measurement,setting,value
ILNRKAIDFLLQRWGGT [SEBOV peptide],induction of apoptosis in CD4+ and CD8+ T cells (in words),[1],Effects were similar
same,CD69+CD4+ T cells (in words),[2],trend toward reduction
same,percentage of CD69+ CD8+ T cells (in words),[2],significant reduction
ILNRKAIDFLLQRWGGT [ZEBOV peptide],fold increase in apoptotic CD4+ cells,[1],3.6 fold
same,fold increase in apoptotic CD8+ cells,[1],2.0 fold
same,percentage of Annexin V+ PI- CD4+,[1],43.6±5.8%
same,percentage of Annexin V+ PI− CD8+,[1],29.7±3.7%
same,IFN-γ,[3],significant decrease
same,IL1-β,[3],significant decrease
same,IL-12p40,[3],significant decrease
same,Levels of IL-8,[3],did not alter
same,Levels of MIP1-α,[3],did not alter
same,TNF-α,[3],significant decrease
same,levels of IL-2,[4],decreased levels
same,levels of IL-10,[4],increased levels
same,levels of IL-12,[4],decreased levels
same,IL-1β,[5],dose-dependent reduction
same,IL-4,[5],trend toward decrease
same,IL-6,[5],no pattern
same,IL-10,[5],increase
same,MCP-1,[5],dose-dependent reduction
same,MIP1-α,[5],no effect
same,TNF-α,[5],dose-dependent reduction
same,anti-CD3/CD28-induced production of IFN-γ,[5],suppressed
same,anti-CD3/CD28-induced production of IL-12p40,[5],suppressed
same,production of IL-2,[5],suppressed
same,fold decrease in the percentage of cells in the S phase,[6],3.5 fold
same,fold increase in the number of cells with hypodiploid DNA content,[6],8.8 fold
same,percentage of BrdU labeled CD4+ cells,[6],3.9±0.6%
same,percentage of BrdU labeled CD8+ cells,[6],4.8±1.8%
same,percentage of cells in S phase,[6],8.0±0.5%
same,percentage of cells with hypodiploid DNA,[6],22.0±2.2%
same,T cell activation (in words),[7],Decreased
same,depletion of CD4+ T cells and CD8+ T cells (in words),[7],Significant depletion
same,fold decrease in the number of CD4+ T cells,[8],7.4 fold
same,fold decrease in the number of CD8+ T cells,[8],4.4 fold
same,fold reduction in the cell surface expression of CD4,[8],3.5 fold
same,fold reduction in the cell surface expression of CD8,[8],4.2 fold
same,mean fluorescence intensity value for CD4 expression ± SD,[8],961±40
same,mean fluorescence intensity value for CD8 expression ± SD,[8],"4,025±75"
same,number of CD4+ T cells,[8],5.5±1.8 ×10^4
same,number of CD8+ T cells,[8],5.8±1.6 ×10^4
same,percentage of cells positive for CD4 and CD8,[8],significant decrease
same,activation and cell death in purified CD4+ or CD8+ T cell population,[9],sufficient to induce activation and cell death
same,mean fluorescent intensity of CD25 expression on CD4+ and CD8+ T cells,[2],decreased
same,mean fluorescent intensity of CD69 expression on CD4+ and CD8+ T cells,[2],decreased
same,percentage of CD4+ T cells that are CD25+,[2],65.9±11.8%
same,percentage of CD4+ T cells that are CD69+,[2],69.4±3.4%
same,percentage of CD8+ T cells that are CD25+,[2],43.9+9.0%
same,percentage of CD8+ T cells that are CD69+,[2],67.9±9.6%
same,percentages of both CD69+CD4+ T cells and CD69+CD8+ T cells (in words),[2],significant reduction
same,apoptosis (in words),[10],increased
LINRHAIDFLLTRWGGT [MARV peptide],induction of apoptosis in CD4+ and CD8+ T cells (in words),[1],Effects were similar
same,percentage of cells positive for CD4 and CD8,[8],significant decrease
same,CD69+CD4+ T cells (in words),[2],trend toward reduction
same,percentage of CD69+ CD8+ T cells (in words),[2],significant reduction
same,percentages of both CD69+CD4+ T cells and CD69+CD8+ T cells (in words),[2],significant reduction
LLNRKAIDFLLQRWGGT [REBOV peptide],induction of apoptosis in CD4+ and CD8+ T cells (in words),[1],No significant induction
same,IFN-γ,[3],significant decrease
same,IL1-β,[3],significant decrease
same,IL-12p40,[3],significant decrease
same,Levels of IL-8,[3],did not alter
same,Levels of MIP1-α,[3],did not alter
same,TNF-α,[3],significant decrease
same,release of IL-2,[3],decreased release
same,cytokine production overall (in words),[5],No effects
same,BrdU labeling (in words),[6],No significant change
same,cycling pattern (in words),[6],No change
same,depletion of CD4+ T cells and CD8+ T cells (in words),[7],Significant depletion
same,fold decrease in the number of CD4+ T cells,[7],4.5 fold
same,fold decrease in the number of CD8+ T cells,[7],4.6 fold
same,mean fluorescent intensity of CD69 expression on CD4+ and CD8+ T cells,[7],decreased
same,number of CD4+ T cells,[7],4.8±0.7 ×10^4
same,number of CD8+ T cells,[7],2.3±0.4 ×10^4
same,percentage of CD4+ rhesus T cells that are CD69+,[7],63.6±1.9%
same,percentage of CD8+ rhesus T cells that are CD69+,[7],60.7±3.1%
same,absolute T cell numbers (in words),[8],no significant depletion
same,expression levels of CD4 and CD8 on PBMC (in words),[8],No decrease
same,percentage of cells positive for CD4 and CD8,[8],not
same,CD69+CD4+ T cells (in words),[2],No effect
same,IL-2R (CD25) expression in CD4+ and CD8+ T cells (in words),[2],No effect
same,percentage of CD69+ CD8+ T cells (in words),[2],No effect
same,percentages of both CD69+CD4+ T cells and CD69+CD8+ T cells (in words),[2],No effect
same,fold increase in apoptotic CD4+ cells,[10],3.1 fold
same,fold increase in apoptotic CD8+ cells,[10],2.6 fold
same,percentage of Annexin V+ P1− CD8+,[10],31.8±3.3%
"LQNRRGLDLLFLKEGGL [CKS-17, reference compound]",levels of IL-2,[4],decreased levels
same,levels of IL-10,[4],increased levels
same,levels of IL-12,[4],decreased levels
same,activity of protein kinase C,[11],blocks the activity
